For 87 compounds, melting point results are on record in a melting point compilation (Tetko et al.; mined from patent text by program, amines drawn as free bases though some values may be those of a salt).

SMILES strings stand for the structures.

In turn, `CCN(CC)CCCN(Cc1ccc(COc2cccc3c2CN(C2CCC(=O)NC2=O)C3=O)cc1)C(=O)OC(C)(C)C` (configuration not stated) came in with a melting point of 140 to 142 °C.

`Nn1c(=O)c(=O)[nH]c2ccc3ccc([N+](=O)[O-])cc3c21` returned a melting point greater than 240 °C.

Compound `CCN(CC)c1ccc(-c2cc(-c3ccc(C(=O)O)cc3)ccc2CCCNC(C)C)cc1C(C)(C)C` showed a melting point of 253 °C.

In the case of `CCC(=O)Nc1ccc(N)c(=O)cc1`, the melting point is 203 to 205 °C.

In turn, `O=C(Nc1ccc(CNc2nc(N3CCC3)nc3ccccc23)cc1)c1ccc(F)cc1` came in with a melting point of 249 °C.

`CCCc1c(C(C)C)nc(C(C)C)c(C(C)O)c1-c1ccc(F)cc1O` (configuration not stated) returned a melting point of 152 to 153 °C.

In turn, `CCOC(=O)c1cn(C)c2ccc(F)cc2c1=O` returned a melting point of 193 to 195 °C.

Take `S=c1oc2ccccc2o1`: the melting point was in the range of 151 to 153 °C.

Turning to `Fc1ccc2[nH]cc(C3=CCN(CC4COc5ccc6ncccc6c5O4)CC3)c2c1` (configuration not stated), the melting point worked out at 184 °C.

With `Cc1nc(-n2ccc(OCc3cccnc3)cc2=O)sc1C(=O)NCc1ccccc1`, the melting point lay in the range of 214 to 216 °C.

Regarding `O=C1N=c2ccccc2=N1`, the melting point fell in the range of 138 to 140 °C.

As to `O=c1sc2ccccc2n1CO`, the melting point was in the range of 101 to 103 °C.

Take `O=C(OC1CCCCC1)c1ncn2c1[C@@H]1CCN1C(=O)c1c(I)cccc1-2`: the melting point lay in the range of 124 to 125 °C.

The compound `CCC/C=C\c1nc(Cl)c(CO)n1Cc1ccc(-c2ccccc2)c(C(=O)O)c1` yielded a melting point of 148 to 150 °C.

`O=C(/C=C/c1ccccc1Cl)/C=C/c1ccccc1Cl` gave a melting point of 116 to 118 °C.

`CCCCCCCCOc1ccc(-c2ccc(Br)cc2)cc1`: the melting point was determined as 120 °C.

`COC(=O)[C@@H]1CCCN1S(=O)(=O)c1ccc(C)c(C(=O)Cl)c1C` displayed a melting point of 92 °C.

In turn, `CC[C@H](C)[C@H](NS(=O)(=O)c1cccc2ccccc12)C(=O)N[C@H]1CCOC1OC` (some centres not stated) gave a melting point of 125 to 127 °C.

Regarding `COc1ccc(-c2cc3ncccc3c(Cl)n2)cc1`, the melting point fell in the range of 126 to 127 °C.

Take `CC(=O)OCC(=O)C1=CCC2C3CCC4=CC(=O)C=CC4(C)C3(F)C(O)CC12C` (configuration not stated): the melting point was 223 to 225 °C.

On to `CCCCCc1nc2c(N)nc3ccccc3c2n1CCCCNC(=O)Nc1ccccc1`, for which the melting point fell in the range of 159 to 160 °C.

For the compound `COC(=O)c1[nH]c2cccc3c2c1CCNC3=O`, the melting point fell in the range of 266 to 267 °C.

Take `CCCN(c1ccccc1)c1nc(C)nc(Cl)c1[N+](=O)[O-]`: the melting point lay within 99.8 to 100 °C.

The compound `O=C1N(c2cc(Cl)nc(Cl)c2)C(=O)C2(Cc3ccc(Br)cc3)CCCN12` (configuration not stated) yielded a melting point of 76.3 °C.

Turning to `O=C(NCCN(Cc1ccccc1)Cc1ccccc1)C1CCN(c2c(Cl)cncc2Cl)CC1`, the melting point fell in the range of 147 to 149 °C.

In the case of `CCc1c(CC(=O)NCCCCCCN)ccc(OC)c1OC`, the melting point lay in the range of 136 to 138 °C.

Turning to `COc1ccc(C(CC2=NOC(=O)C2)c2ccccc2)cc1OC1CCCC1` (configuration not stated), the melting point was in the range of 137 to 139 °C.

In the case of `Brc1c(NC2=NCCN2)ccc2ncn(CC3CCCCC3)c12`, the melting point was 153 to 155 °C.

`CCCOc1nsc(NC(=O)C(C)C)c1C#N` returned a melting point of 220 to 221 °C.

For the compound `Cn1c(/C=C/CO)c(-c2ccccc2)c2ccccc2c1=O`, the melting point is 209 °C.

Compound `CCOC(=O)Cn1c(CC(=O)O)cc2c(Cl)c(Cl)ccc21` gave a melting point of 205 to 207 °C.

Compound `CC(CC(=O)Nc1c(Cl)ccc2nc(N3CCNCC3)ccc12)c1ccccc1` (configuration not stated) returned a melting point of 194 to 196 °C.

For `C#CC[C@H](c1nc2cccnc2c(=O)n1Nc1ccccc1)N(CCCN)C(=O)c1cc(F)c(F)c(F)c1F`, the melting point lay in the range of 180 to 182 °C.

With `O=C(O)C(CSc1ncccn1)CS(=O)(=O)c1ccc(-c2ccc(Cl)cc2)cc1` (configuration not stated), the melting point was in the range of 166 to 168 °C.

Compound `N#CC(C#N)=C1Sc2nc3cc([N+](=O)[O-])c([N+](=O)[O-])cc3nc2S1` had a melting point greater than 300 °C.

The compound `CC(C)(CO)COc1ccc(-n2cc(C(=O)O)cn2)cc1C#N` yielded a melting point of 188 to 190 °C.

`O=C(O)c1nccnc1N1CCN(CC(O)CO)CC1` (configuration not stated) came in with a melting point of 175 to 184 °C.

`NC1=CC=C2C=c3c(cnn3-c3ccccc3)=C2C1=O` yielded a melting point of 200 to 202 °C.

`O=C(C1CCC(Nc2nccc(-n3nnc4c(-c5ccsc5)cccc43)n2)CC1)N1CCC(O)CC1` (configuration not stated): the melting point was in the range of 233 to 234 °C.

The compound `COc1cccc(Cc2oc3ccc(OC)cc3c2CC#N)c1` gave a melting point of 81 °C.

`COC(=O)CCc1ccc(CNC(=O)[C@@H](CCCNC(N)=N[N+](=O)[O-])NC(=O)C(c2ccccc2)c2ccccc2)cc1`: the melting point was 159 to 161 °C.

In the case of `Cc1c(-c2cc(CO)c(Cl)cc2F)nn(C)c1C(F)(F)F`, the melting point turned out to be 58 °C.

In the case of `O=C(O)C1CCCc2c(n(Cc3ccc(Cl)cc3)c3ccc(F)cc23)C1` (configuration not stated), the melting point lay in the range of 185 to 186 °C.

Turning to `O=C(Nc1ccc(Cl)nc1)c1cc2cc(F)ccc2n1Cc1ccncc1`, the melting point was 244 to 246 °C.

In turn, `COc1ccccc1NC(=O)[C@@H]1Cc2[nH]cnc2CN1C(C)=O` came in with a melting point of 159 °C.

`O=[N+]([O-])c1cc(C(c2ccc(Nc3ccccc3)c([N+](=O)[O-])c2)(C(F)(F)F)C(F)(F)F)ccc1Nc1ccccc1` came in with a melting point of 165 to 166 °C.

For `O=S(=O)(Oc1ccc2ccc(OS(=O)(=O)C(F)(F)F)cc2c1)C(F)(F)F`, the melting point was 60 to 62 °C.

Compound `COC(=O)C1=C(C)NC(C)=C(c2nc(CN(C)Cc3ccccc3)no2)C1c1cccc([N+](=O)[O-])c1` (configuration not stated) came in with a melting point of 127 to 128 °C.

Consider `COc1ccc(CNC(=O)C(=O)NCCc2ccccn2)c(OC)c1`, for which the melting point was 123 to 124 °C.

With `CCCn1nc(C(C)C)c(C(=O)OCOC(=O)C(C)(C)C)c1Cc1ccc(-c2ccccc2-c2nnn[nH]2)cc1`, the melting point fell in the range of 62 to 67 °C.

`COC(=O)CCC(=O)OC(=C1C(=O)N(C(N)=O)c2cc(Cl)c(F)cc21)c1cccs1` yielded a melting point of 179 to 183 °C.

For the compound `O=C1Cn2cncc2CN1Cc1ccc(F)cc1`, the melting point was in the range of 112 to 114 °C.

Compound `CCOC(=O)c1ccc(OCc2ccc(Cl)cc2)cc1` showed a melting point of 83 to 84 °C.

Consider `CC1=NC(NC(=O)Nc2cccc(C)c2)C(=O)N(CC(=O)NC(C)(C)C)c2c(C)cccc21` (configuration not stated), for which the melting point was in the range of 243 to 244 °C.

As for `Nc1ncccc1-c1nc2cc(-c3ccc(C(=O)O)o3)cnc2n1-c1ccc(CNC(=O)c2ccccc2)cc1`, the melting point lay within 211 to 217 °C.

In turn, `CCOc1ccc(F)c2c1c(CCN(C)C)cn2CC` displayed a melting point of 59 to 60 °C.

With `CCn1cc(C)c(NS(=O)(=O)c2ccc(N)cc2)nc1=O`, the melting point is 176 to 178 °C.

Compound `CCn1c(C)c(C(=O)c2nccnc2C(=O)O)c2ccccc21` showed a melting point of 212 to 213 °C.

`CS(=O)(=O)c1ccc(-c2sc(Nc3cc(Cl)cc(Cl)c3)nc2-c2ccc(F)cc2)cc1`: the melting point was in the range of 287 to 288 °C.

Turning to `COc1cc(C)c(NC(=O)OC(C)(C)C)c(C)c1C`, the melting point was in the range of 104 to 106 °C.

Consider `O=Cc1ccn(-c2cc3c(cc2C(F)(F)F)[nH]c(=O)c(=O)n3CC(=O)O)c1`, for which the melting point was greater than 250 °C.

For `CN(C)CC(=O)Nc1nc(-c2ccco2)c(C(=O)C2CCOCC2)s1`, the melting point lay within 129 to 130 °C.

Regarding `CSc1ccc(CCN2CCN(C(=O)c3ccc(N(CCOC(C)C)C(=O)CCl)cc3)CC2)cc1`, the melting point fell in the range of 115 to 116 °C.

Turning to `CCCCc1cccc2c3c([nH]c12)C(CC)(CC(=O)O)CCC3` (configuration not stated), the melting point was in the range of 131 to 134 °C.

With `CCC(=O)OC1(C(=O)CO)CCC2C3CC(C)C4=CC(=O)CCC4(C)C3C(O)CC21C` (configuration not stated), the melting point was 197 °C.

The compound `CCOc1ccc(C(Cl)=NOS(C)(=O)=O)cc1` yielded a melting point of 93 to 95.5 °C.

The compound `CCc1ccccc1NC=C1C(=O)N(c2cccc(C#N)c2)N=C1C` returned a melting point of 211 °C.

Compound `O=C(Nc1ccc2c(c1)nc1n2CCCC1)c1cc2cccnc2n1Cc1ccccc1` had a melting point of 233 to 235 °C.

In turn, `CC1(C)Oc2ccsc2C(NC(=O)c2ccncc2)C1O` (configuration not stated) returned a melting point of 223 to 234 °C.

Take `COCCNC(=O)c1nc(C)c2cc(Cc3ccc(F)cc3)cnc2c1OCc1ccccc1`: the melting point was 167 to 168 °C.

As to `COc1cc([N+](=O)[O-])c2ncc(C)cc2c1`, the melting point fell in the range of 173 to 175 °C.

As to `CN(CCCCCC(=O)O)c1ccc(Br)cc1C=O`, the melting point lay within 95 to 96 °C.

Compound `CCOC(=O)c1cccc(NC(=O)C(CSC(C)=O)Cc2ccccc2)c1` (configuration not stated) displayed a melting point of 89 to 92 °C.

As for `CNC(=O)c1cc2nc(C(F)(F)F)ccc2cc1NC(=O)c1cc(Br)nn1-c1ncccc1Cl`, the melting point lay in the range of 127 to 129 °C.

`OCC#CCCCCCCC#Cc1ccc(O)c(O)c1` had a melting point of 81 to 83 °C.

`Clc1cccc(N2CCN(CCCCNc3ccc(-c4ccccc4)cn3)CC2)c1Cl`: the melting point was 110 °C.

`N#Cc1ccc2c(c1)Sc1ccccc1CC2=O` showed a melting point of 166 to 170 °C.

`COc1ccc(Cn2c(=O)c3ccccc3n(CCCCBr)c2=O)cc1` returned a melting point of 124 to 125 °C.

In turn, `CCCc1c(C(=O)OCC)[nH]c(CC)c1C` gave a melting point of 73 to 74 °C.

Consider `CCCc1c(OCCCOc2ccc(C(=O)CO)c(OC)c2CCC)ccc2c1OC(C(=O)OC)CC2` (configuration not stated), for which the melting point was 87 to 88 °C.

On to `Cc1cc(Nc2ccccn2)c(S(C)(=O)=O)cc1C(=O)N=C(N)N`, for which the melting point is 225 to 226 °C.

Compound `CCN(CC)C(=O)c1ccc(Cl)c(Cl)c1Br` returned a melting point of 196 °C.

As for `CCOC(=O)c1cn[nH]c1C(=O)CC(C)C`, the melting point is 105 to 107 °C.

`CCc1cc2c(c(CC)n1)c(C)c(C)c(=O)n2Cc1ccc(-c2ccccc2-c2nnn(C(c3ccccc3)(c3ccccc3)c3ccccc3)n2)cc1`: the melting point lay within 159 to 160 °C.

Turning to `Cc1ccc2c(C(=O)NC(C)C)c(NC(=O)c3cc(C(F)(F)F)nn3-c3ncccc3Cl)c(C)cc2n1`, the melting point was greater than 240 °C.

`CCOC(=O)c1ncn2c1nc(N1CCOCC1)c1ccccc12`: the melting point was 165 °C.

For the compound `Cc1ccc(S(=O)(=O)N2CCc3ccccc3C(Oc3ccc(C(F)(F)F)cc3)C2)cc1` (configuration not stated), the melting point was in the range of 114 to 115 °C.
